Tests used:
[1] = molecular target: T1, GPR4 (Homo sapiens, UniProt P46093); assay: Radioligand binding to homogenates of GPR4-transfected CHO cells; details: cold competitors, GPR4-transfected CHO cell homogenates
T1 construct: were used to generate full length GPR4, which was digested with EcoRI and Xba I and cloned into the pBs3HA vector; expressed in transfected cells
Procedure: (§1) To characterize the binding of SPC and LPC to GPR4 and TDAG8, we conducted radioligand binding assays. CHO cells were chosen for GPR4 binding assays, since HEK293 cells express relatively high levels of endogenous GPR4. CHO cells stably transfected with empty vector or GPR4 were serum starved for 20 h, then collected after exposure to 2 mM EDTA in PBS. The pelleted cells were stored at −80° C. until use. Binding assays were performed essentially as described previously (Xu et al. (2000) Nat Cell Biol 2, 261-267), except binding was performed at 4° C. Briefly, frozen cells (10^6 cells/ml) were homogenized in a binding buffer. Assays were performed in 96-well plates in triplicate with 100 μl cell homogenate (equivalent to 10^5 cells/well). Different amounts of [^3H]SPC or [^3H]16:0-LPC were added to the cell homogenates in 50 μl of binding buffer, in the presence or absence of cold SPC or 16:0-LPC, or other competitors. The plates were incubated at 4° C. for 120 min, unless otherwise indicated. Cell-bound [^3H]SPC or [^3H]LPC was collected onto a filter (Printed Filtermat A, Wallac, Gaithersburg, Md.) using an automated cell harvester (HARVESTER 96, Tomtec, Orange, Conn.). Specific binding was calculated by subtraction of nonspecific binding (binding detected in the presence of 100-fold excess unlabeled SPC or 16:0-LPC) from the total binding.
Cell homogenates were used for binding assays. Binding was conducted at 4° C. for 120 min or as indicated. [^3H]SPC and [^3H]16:0-LPC specifically bound to cell homogenates from GPR4-transfected CHO cells in a time-dependent manner and reached equilibrium after 60 min incubation at 4° C. […] The maximum binding capacities for SPC and 16:0-LPC were 996 fmole/10^5 cells for SPC and 1,528 fmole/10^5 cells for 16:0-LPC. […] Binding assays using [^3H]18:0-LPC gave similar results. We also tested the four glycosphingolipids, Psy, Glu-Sph, Gal-Cer, and Lac-Cer, for their ability to compete for the binding of [^3H]SPC and [^3H]16:0-LPC to GPR4.

[2] = molecular target: T1, GPR4; assay: Single-cell intracellular calcium assay (fura-2) in GPR4-GFP-transfected MCF10A cells; type: cell-based; details: for increase in [Ca2+]i in GPR4- vs vector-transfected/parental MCF10A cells: lipid at 1 μM; for effect of PAF receptor antagonist on calcium response to LPC or SPC: BN52021 200 μM, WEB-2086 2 μM, WEB-2170 2 μM
Procedure: (§2) Measurement of [Ca^2+]i, was performed as described previously in Xu et al. (2000) Nat Cell Biol 2, 261-267. Briefly, pGPR4-GFP-transfected MCF10A cells were grown in specialized glass-bottom dishes (Bioptech, Inc., Butler, Pa.) and loaded with fura-2 in HEPES buffered saline. Using a dual-wavelength spectrofluorometer (RFK-6002, Photon Technology Int'l, So. Brunswick, N.J.) coupled to an inverted fluorescence microscope (Olympus, IX-70, Lake Success, N.Y.), GFP-positive cells were identified using an excitation wavelength of 488 nm, a dichroic 505 nm long-pass filter and an emitter filter at bandpass of 535 nm (Chroma Technology, Brattleboro, Vt.). Measurements of [Ca^2+]i were performed on individual GPR4-GFP positive cells at excitation wavelengths of 340 and 380 nm and an emission wavelength of 510 nm. Conversion of the 340/380 ratio value into [Ca^2+]i in nM was estimated by comparing the cellular fluorescence ratio with ratios acquired using fura-2 (free acid) in buffers containing known Ca^2+ concentrations. [Ca^2+]i was then calculated as described by Grynkiewicz et al. (1985) J Biol Chem 260, 3440-3450. All calcium assays were performed in the presence of 1 mM EGTA in the assay buffers. Therefore, intracellular calcium release, not calcium influx, was analyzed.
To test whether GPR4 is a receptor for SPC, MCF10A cells were transiently transfected with pGPR4-GFP.
The GFP receptor fusion was used to identify positively transfected cells, and single-cell calcium assays were performed as described in our previous studies, such as Xu et al. (2000) Nat Cell Biol 2, 261-267.

[3] = molecular target: T1, GPR4; assay: ERK MAP kinase activation (phospho-ERK Western blot) in GPR4-infected Swiss 3T3 cells; type: cell-based; details: GPR4-ires-GFP vs GFP Swiss 3T3 cells; SPC and LPC 100 nM
Procedure: MAP kinases are key signaling intermediates of DNA synthesis and cell proliferation. Swiss 3T3 cells were infected with MSCV GPR4-ires-GFP or MSCV ires-GFP, and subsequently cells sorted by FACS for positive expression of GFP as described previously (Kabarowski et al. (2000) Proc Natl Acad Sci USA. 97, 12109-12114). Cells were plated in 6-well plates in DMEM containing 5% FBS, serum-starved overnight, and then treated lipids in DMEM for the indicated times. Cells were lysed on ice in RIPA buffer containing 50 mM Tris-HCl, pH 7.5, 1% Nonidet P-40, 0.5% deoxycholate,0.1% SDS, 150 mM NaCl, 2 mM EGTA, 25 mM sodium fluoride, 1 mM sodium orthovanadate, and 1× protease inhibitors (Sigma P8340). Lysates containing equal amounts of protein were separated on 10% SDS-polyacrylamide gels and transferred onto nitrocellulose membranes. Antibodies against phosphorylated ERK1/2 (Cell Signaling Technologies; Beverly, Mass.) were used to probe the membrane and the ECL system (Amersham) was used for detection. To normalize the amounts of protein loaded in each lane, membranes were stripped and re-probed with antibodies against total ERK (Cell Signaling Technologies). In some experiments, cells were pretreated with 100 ng/ml PTX for 12-16 h prior to SPC and LPC stimulation.

[4] = molecular target: T1, GPR4; assay: SRE luciferase reporter in GPR4-transfected HEK293 cells; type: cell-based; details: GPR4 cotransfection
Procedure: The serum-response element (SRE) reporter system is a sensitive assay for receptors of lipid factors (An et al. (1998) J Biol Chem 273, 7906-7910; An et al. (1999) Mol Pharmacol 55, 787-794). The SRE reporter system used herein (pSRE-Luc) was a gift from Dr. Songzhu An (UCSF), or may be purchased from Stratagene (La Jolla, Calif.). Both systems give identical results. HEK293 and HEK293GPR4 cells were cultured in RPMI1640 with 10% FBS in 10 cm dishes to ˜85% confluence. To the cells in each dish, pSRE-Luc (10 μg) was transfected in the presence of 60 μl LipofectAMINE reagent. Cells were seeded in 96-well plates 16 h after transfection, incubated for another 24 h in RPMI1640 with 10% FBS, and starved in serum-free medium for 16 h. SPC (dissolved in PBS to 10 mM) and other lipids (LPCs were dissolved in 70% ethanol. Other lipids were dissolved in PBS, 70-95% ethanol, or 100% MeOH) were diluted in serum free RPMI 1640 and added to the cells, followed by a 10 h incubation. Luciferase activity was measured in Microlite™ 1 plates (DYNEX Technologies, Inc., Virginia) using 60 μl of cell lysate and 20 μl luciferase substrate. PTX (100 ng/ml) was added during the 16 h serum starvation period and pcDNA1-C3 (encoding the C3-exoenzyme, 2 μg) was co-transfected with pSRE-Luc (10 μg). All experiments were performed in quadruplicate and were repeated at least three times. The Student's t test was performed using the GraphPad Instat software (San Diego, Calif.). p<0.05 was considered to be statistically significant.

[5] = molecular target: T2, endogenous PAF receptor (Homo sapiens, UniProt P25105); assay: Calcium assay of the endogenous PAF receptor in MCF10A cells; type: cell-based; details: BN52021 200 μM, WEB-2086 2 μM, WEB-2170 2 μM
T2 construct: endogenous in cells; host or cells: MCF10A (parental and GPR4-GFP-transfected)
Procedure: as §2
Therefore, it is unlikely that the increase in calcium induced by LPC was mediated by a PAF receptor.

[6] = molecular target: T1, GPR4; assay: Internalization of GPR4-GFP in HEK293 cells (confocal microscopy); type: cell-based
Procedure: pGPR4-GFP stably expressing HEK293 cells were cultured in 6 cm tissue culture dishes in RPMI1640 with 10% FBS. After 16-24 h serum starvation, cells were treated with different lipids at 37° C. for 2 h. Cells were washed with cold PBS and fixed with 4% paraformaldehyde in PBS. The subcellular localization of GPR4-GFP protein was visualized under a Leica TV confocal fluorescence microscope with a 63× oil immersion lens (Wetzler, Heidelberg, Germany). The excitation and emission wavelengths were 488 nm and 515-540 nm, respectively.
G protein coupled receptors undergo agonist-dependent desensitization and internalization. When HEK293 cells are transfected with the pEGFP-N1 vector, GFP protein is expressed in the cytosol of the cells. The GPR4-GFP and TDAG8-GFP fusion proteins, on the other hand, was expressed only on the plasma membrane.

[7] = molecular target: T3, TDAG8 (Homo sapiens, UniProt Q8IYL9); assay: Binding of phospholipids to TDAG8
T3 construct: expressed in transfected cells
Procedure: as §1
Using functional and binding assays, we have identified the ligands for TDAG8.

[8] = molecular target: T3, TDAG8; assay: TDAG8 receptor internalization; type: cell-based
Description: G protein coupled receptors undergo agonist-dependent desensitization and internalization.

T2 sequence (P25105 whole entry): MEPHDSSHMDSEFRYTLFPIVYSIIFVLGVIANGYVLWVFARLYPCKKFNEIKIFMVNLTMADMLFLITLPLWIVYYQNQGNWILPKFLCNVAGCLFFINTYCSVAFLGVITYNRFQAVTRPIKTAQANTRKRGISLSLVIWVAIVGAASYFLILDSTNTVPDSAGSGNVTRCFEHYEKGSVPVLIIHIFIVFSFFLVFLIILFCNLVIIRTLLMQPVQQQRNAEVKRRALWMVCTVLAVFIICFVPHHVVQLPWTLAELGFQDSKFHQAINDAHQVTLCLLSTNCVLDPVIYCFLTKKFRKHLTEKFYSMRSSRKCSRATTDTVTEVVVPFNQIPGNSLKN
T1 sequence (P46093 whole entry): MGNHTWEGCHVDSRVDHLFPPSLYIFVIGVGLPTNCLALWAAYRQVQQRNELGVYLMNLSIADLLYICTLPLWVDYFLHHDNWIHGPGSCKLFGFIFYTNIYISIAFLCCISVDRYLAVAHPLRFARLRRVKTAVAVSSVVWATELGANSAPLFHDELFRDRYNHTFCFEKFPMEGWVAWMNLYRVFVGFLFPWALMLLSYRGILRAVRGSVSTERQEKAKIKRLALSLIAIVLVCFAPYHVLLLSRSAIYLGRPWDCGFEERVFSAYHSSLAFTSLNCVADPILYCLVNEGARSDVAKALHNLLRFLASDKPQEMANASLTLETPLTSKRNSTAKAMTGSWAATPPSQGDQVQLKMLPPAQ
T3 sequence (Q8IYL9 whole entry): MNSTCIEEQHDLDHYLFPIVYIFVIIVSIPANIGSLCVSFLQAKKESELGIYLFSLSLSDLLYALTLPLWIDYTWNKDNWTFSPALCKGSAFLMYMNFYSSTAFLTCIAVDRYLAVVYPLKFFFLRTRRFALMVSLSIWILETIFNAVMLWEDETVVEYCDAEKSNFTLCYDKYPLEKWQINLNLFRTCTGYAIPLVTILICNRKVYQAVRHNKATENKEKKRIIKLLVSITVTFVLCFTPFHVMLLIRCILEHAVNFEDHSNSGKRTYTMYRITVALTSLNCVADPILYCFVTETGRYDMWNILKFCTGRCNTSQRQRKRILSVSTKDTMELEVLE

| Molecule | GPR4-dependent ERK activation (in words) [3] | competition for binding of [3H]SPC and [3H]16:0-LPC to GPR4 [1] | increase in [Ca2+]i in GPR4- vs vector-transfected/parental MCF10A cells [2] | also measured |
| --- | --- | --- | --- | --- |
| lysophosphatidylinositol [LPI(18:0)] | – | not | – | – |
| CCCCCCCCCCCCC/C=C/[C@@H](O)[C@@H](N)COP(=O)([O-])OCC[N+](C)(C)C [D-erythro-SPC] | – | – | stereoselectivity of GPR4 favoring D-erythro-SPC | – |
| CCCCCCCCCCCCC/C=C/[C@@H](O)[C@@H](N)COP(=O)([O-])OCC[N+](C)(C)C [L-threo-SPC] | – | – | favoring D-erythro-SPC (the bioactive form of SPC) vs. L-threo-SPC | – |
| CCCCCCCCCCCCC/C=C/[C@@H](O)[C@@H](N)CO[C@@H]1O[C@H](CO)[C@H](O)[C@H](O)[C@H]1O [Psy, psychosine] | not | None of these glycosphingolipids competed successfully | did not stimulate increases in [Ca^2+]i | – |
| Sphingomyelin [SM (18:0)] | – | not | – | transcriptional activation of SRE (in words) [4]: none of them induced significant transcriptional activation of SRE |
| Cc1nnc2n1-c1sc3c(c1C(c1ccccc1Cl)=NC2)CC(C(=O)N1CCOCC1)C3 (centres unmarked) [WEB-2170] | – | – | – | effect of PAF receptor antagonist on calcium response to LPC or SPC [2]: did not affect; effect of PAF receptor antagonist on calcium response to LPC or SPC ([2]; listed as WEB-2071): insensitive; effect on calcium signal induced by PAF (100 nM) [5]: completely blocked; effect of PAF receptor antagonist on GPR4 internalization induced by SPC or 16:0-LPC [6]: did not affect |
| Cc1nnc2n1-c1sc(CCC(=O)N3CCOCC3)cc1C(c1ccccc1Cl)=NC2 [WEB-2086] | – | – | – | effect of PAF receptor antagonist on calcium response to LPC or SPC [2]: not affected; effect on calcium signal induced by PAF (100 nM) [5]: completely abolished; effect of PAF receptor antagonist on GPR4 internalization induced by SPC or 16:0-LPC [6]: did not affect |
| CC1C(=O)OC2C(O)C34C5CC(C(C)(C)C)C36C(OC(=O)C6O)OC4(C(=O)O5)C12O (centres unmarked) [BN52021] | – | – | – | effect of PAF receptor antagonist on calcium response to LPC or SPC [2]: not affected; effect on calcium signal induced by PAF (100 nM) [5]: completely abolished; effect of PAF receptor antagonist on GPR4 internalization induced by SPC or 16:0-LPC [6]: did not block |
| CCCCCCCCCCCCCCCCCC(=O)OC[C@@H](O)COP(=O)([O-])OCC[N+](C)(C)C [18:0-LPC] | – | successfully competed for binding | – | – |
| lactosyl-β1′1-ceramide [Lac-Cer] | activation was independent of GPR4 expression | None of these glycosphingolipids competed successfully | did not stimulate increases in [Ca^2+]i | – |
| CCCCCCCCCCCCCCCCOC[C@@H](O)COP(=O)([O-])OCC[N+](C)(C)C [lyso-PAF] | – | not | – | transcriptional activation of SRE (in words) [4]: none of them induced significant transcriptional activation of SRE; binding to TDAG8 [7]: able to bind to TDAG8; TDAG8 receptor internalization [8]: induced TDAG8 receptor internalization |

Further lines, with some results ahead:

| GPR4-dependent ERK activation (in words) [3] | Molecule | competition for binding of [3H]SPC and [3H]16:0-LPC to GPR4 [1] | increase in [Ca2+]i in GPR4- vs vector-transfected/parental MCF10A cells [2] | also measured |
| --- | --- | --- | --- | --- |
| not | CCCCCCCCCCCCC/C=C/[C@@H](O)[C@@H](N)CO[C@@H]1O[C@H](CO)[C@@H](O)[C@H](O)[C@H]1O [Glu-Sph, glucosyl-β1′1-sphingosine] | None of these glycosphingolipids competed successfully | did not stimulate increases in [Ca^2+]i | – |
| not | galactosyl-β1′1-ceramide [Gal-Cer] | None of these glycosphingolipids competed successfully | induced the same level of increased [Ca^2+]i | – |
